The values below are quoted from earlier work in patent US20140234406A1, “NOVEL NANOPARTICULATE SUSPENSION FOR INCORPORATING FAT-SOLUBLE VITAMINS IN THE TREATMENT OF HAIR THINNING and HAIR LOSS” (HairRx, priority 2013, published 2014).

A word on the half-life: it is the time in which the quantity being followed falls by half.

The conditions of this data set: biological half-life; reported by Yap et al. 2001 and Schwedhelm et al. 2003.

SMILES strings stand for the structures.

Take `Cc1c(C)c2c(c(C)c1O)CC[C@@](C)(CCC[C@H](C)CCC[C@H](C)CCCC(C)C)O2` [alpha-tocopherol]: the half-life is 73 to 81 h.
